# In patent US6414019B1, “Synergistic mixtures of selected amino acids” (Agrogene Ltd., priority 1997, dated 2002):
# Several values for one entry are separate records, joined by “and”; a condition that tells them apart may be missing. Identical values can stand only once. Like-named read-outs stand apart in the source and are kept apart here.
# Tested on: Phytophthora infestans (resistant to metalaxyl)
# Type: in vivo
# [1] = Cultivar Cara, 16 mg/L active ingredient, 5 days post inoculation, Table 3
# [2] = Cultivar Cara, 62 mg/L active ingredient, 5 days post inoculation, Table 3
# [3] = Cultivar Cara, 250 mg/L active ingredient, 5 days post inoculation, Table 3
# [4] = Cultivar Cara, 1000 mg/L active ingredient, 5 days post inoculation, Table 3
# [5] = Cultivar Draga, 16 mg/L active ingredient, 5 days post inoculation, Table 3
# [6] = Cultivar Draga, 62 mg/L active ingredient, 5 days post inoculation, Table 3
# [7] = Cultivar Draga, 250 mg/L active ingredient, 5 days post inoculation, Table 3
# [8] = Cultivar Draga, 1000 mg/L active ingredient, 5 days post inoculation, Table 3
# [9] = 16 mg/L active ingredient, 7 days post inoculation, Table 8
# [10] = 62 mg/L active ingredient, 7 days post inoculation, Table 8
# [11] = 250 mg/L active ingredient, 7 days post inoculation, Table 8
# [12] = 25 mg/L active ingredient, 5 days post inoculation, Table 12
# [13] = 125 mg/L active ingredient, 4 day post inoculation, Table 7
# [14] = 250 mg/L active ingredient, 4 days post inoculation, Table 11
# [15] = 250 mg/L active ingredient, Table 27
# [16] = 500 mg/L active ingredient, Table 27
# [17] = 1000 mg/L active ingredient, Table 27
# [18] = 16 mg/L active ingredient, 5 days post inoculation, Table 2
# [19] = 16 mg/L active ingredient, 6 day post inoculation, Table 6
# [20] = 62 mg/L active ingredient, 5 days post inoculation, Table 2
# [21] = 62 mg/L active ingredient, 6 day post inoculation, Table 6
# [22] = 250 mg/L active ingredient, 5 days post inoculation, Table 2
# [23] = 250 mg/L active ingredient, 6 day post inoculation, Table 6
# [24] = 1000 mg/L active ingredient, 6 day post inoculation, Table 6
structure (smiles),measurement,setting,value
"CCO[PH](=O)O [Fosetyl − Al, phosetyl-aluminium]",Percent Disease Control,[1],9%
same,Percent Disease Control,[2],24%
same,Percent Disease Control,[3],24%
same,Percent Disease Control,[4],70%
same,ED90,"Cultivar Cara, 5 days post inoculation, Table 3",1390 µg/mL
same,Percent Disease Control,[5],33%
same,Percent Disease Control,[6],33%
same,Percent Disease Control,[7],50%
same,Percent Disease Control,[8],93%
same,ED90,"Cultivar Draga, 5 days post inoculation, Table 3",856 µg/mL
"[Cu+2].[OH-].[OH-] [Cu(OH)2, copper hydroxide]",Percent Disease Control,"4 mg/L active ingredient, 7 days post inoculation, Table 8",0%
same,Percent Disease Control,[9],0%
same,Percent Disease Control,[10],13%
same,Percent Disease Control,[11],75%
same,ED90,"7 days post inoculation, Table 8",298 µg/mL
Cc1ccc(C(C)NC(=O)[C@@H](NC(=O)OC(C)C)C(C)C)cc1 (some centres unmarked) [Fencaramid],Percent Disease Control,"2 mg/L active ingredient, 4 day post inoculation, Table 7",0%
same,Percent Disease Control,"2 mg/L active ingredient, 5 days post inoculation, Table 12",0%
same,Percent Disease Control,"8 mg/L active ingredient, 4 day post inoculation, Table 7",50%
same,Percent Disease Control,"8 mg/L active ingredient, 5 days post inoculation, Table 12",50%
same,Percent Disease Control,[12],100%
same,Percent Disease Control,"31 mg/L active ingredient, 5 days post inoculation, Table 12",98%
same,Percent Disease Control,"32 mg/L active ingredient, 4 day post inoculation, Table 7",98%
same,Percent Disease Control,[13],100%
same,ED90,"4 day post inoculation, Table 7",19 µg/mL
same,ED90,"5 days post inoculation, Table 12",19 µg/mL
CCCCCCCCOC(=O)CC(C)NC(=O)c1ccccc1 (racemic) [N-benzoyl octyl ester derivative of BABA],Percent Disease Control,[9],3%
same,Percent Disease Control,"16 mg/L active ingredient, 7 days post inoculation, Table 9",0%
same,Percent Disease Control,"16 mg/L active ingredient, 7 days post inoculation, Table 10",0%
same,Percent Disease Control,[12],15%
same,Percent Disease Control,[10],25%
same,Percent Disease Control,"62 mg/L active ingredient, 7 days post inoculation, Table 9",0%
same,Percent Disease Control,"62 mg/L active ingredient, 7 days post inoculation, Table 10",0%
same,Percent Disease Control,[13],15%
same,Percent Disease Control,"250 mg/L active ingredient, 4 day post inoculation, Table 7",25%
same,Percent Disease Control,[14],63%
same,Percent Disease Control,[11],25%
same,Percent Disease Control,"250 mg/L active ingredient, 7 days post inoculation, Table 9",0%
same,Percent Disease Control,"250 mg/L active ingredient, 7 days post inoculation, Table 10",0%
same,Percent Disease Control,"500 mg/L active ingredient, 4 days post inoculation, Table 11",69%
same,Percent Disease Control,"500 mg/L active ingredient, 5 days post inoculation, Table 12",25%
same,Percent Disease Control,"1000 mg/L active ingredient, 4 day post inoculation, Table 7",50%
same,Percent Disease Control,"1000 mg/L active ingredient, 4 days post inoculation, Table 11",85%
same,Percent Disease Control,"1000 mg/L active ingredient, 5 days post inoculation, Table 12",50%
same,Percent Disease Control,"1000 mg/L active ingredient, 7 days post inoculation, Table 8",75%
same,Percent Disease Control,"1000 mg/L active ingredient, 7 days post inoculation, Table 9",25%
same,Percent Disease Control,"1000 mg/L active ingredient, 7 days post inoculation, Table 10",25%
same,Percent Disease Control,"2000 mg/L active ingredient, 4 day post inoculation, Table 7",53%
same,Percent Disease Control,"2000 mg/L active ingredient, 4 days post inoculation, Table 11",89%
same,Percent Disease Control,"2000 mg/L active ingredient, 5 days post inoculation, Table 12",53%
"CSC(=O)c1cccc2nnsc12 [BION, Acibenzolar-s-methyl]",Percent Disease Control,[15],13%
same,Percent Disease Control,[16],25%
same,Percent Disease Control,[17],78%
same,ED90,Table 27,1173 µg/mL
"CC(N)CC(=O)O (stereo not drawn) [BABA, DLβ-amino-butanoic acid]",Percent Disease Control,"16 mg/L active ingredient, 5 day post inoculation, Table 4",3%
same,Percent Disease Control,[18],3%
same,Percent Disease Control,[19],22%
same,Percent Disease Control,"16 mg/L active ingredient, 7 days, Table 5",14%
same,Percent Disease Control,"32 mg/L active ingredient, 5 days post inoculation, Table 1",0%
same,Percent Disease Control,"62 mg/L active ingredient, 5 day post inoculation, Table 4",24%
same,Percent Disease Control,[20],24%
same,Percent Disease Control,[21],22%
same,Percent Disease Control,"62 mg/L active ingredient, 7 days, Table 5",14%
same,Percent Disease Control,"125 mg/L active ingredient, 5 days post inoculation, Table 1",0%
same,Percent Disease Control,"250 mg/L active ingredient, 5 day post inoculation, Table 4",18%
same,Percent Disease Control,"250 mg/L active ingredient, 5 days post inoculation, Table 1",0%
same,Percent Disease Control,[22],18%
same,Percent Disease Control,[23],22%
same,Percent Disease Control,"250 mg/L active ingredient, 7 days, Table 5",14%
same,Percent Disease Control,[15],38%
same,Percent Disease Control,[16],75%
same,Percent Disease Control,"1000 mg/L active ingredient, 5 day post inoculation, Table 4",64%
same,Percent Disease Control,"1000 mg/L active ingredient, 5 days post inoculation, Table 1",13%
same,Percent Disease Control,"1000 mg/L active ingredient, 5 days post inoculation, Table 2",64%
same,Percent Disease Control,[24],69%
same,Percent Disease Control,"1000 mg/L active ingredient, 7 days, Table 5",36%
same,Percent Disease Control,[17],93%
same,ED90,7 days,2617 µg/mL
same,Percent Disease Control,[1],9%
same,Percent Disease Control,[2],9%
same,Percent Disease Control,[3],9%
same,Percent Disease Control,[4],24%
same,Percent Disease Control,[5],0%
same,Percent Disease Control,[6],0%
same,Percent Disease Control,[7],0%
same,Percent Disease Control,[8],53%
"O=C1c2ccccc2C(=O)N1SC(Cl)(Cl)Cl [FOLPET, Folpet]",Percent Disease Control,"4 mg/L active ingredient, 4 days post inoculation, Table 11",70%
same,Percent Disease Control,"16 mg/L active ingredient, 4 days post inoculation, Table 11",75%
same,Percent Disease Control,[19],81%
same,Percent Disease Control,"62 mg/L active ingredient, 4 days post inoculation, Table 11",90%
same,Percent Disease Control,[21],95%
same,Percent Disease Control,[14],95%
same,Percent Disease Control,[23],98%
same,Percent Disease Control,[24],100%
same,ED90,"4 days post inoculation, Table 11",141 µg/mL
same,ED90,"6 day post inoculation, Table 6",84 µg/mL
CCNC(=O)NC(=O)/C(C#N)=N/OC [Cymoxanil],Percent Disease Control,"4 mg/L active ingredient, 5 days post inoculation, Table 2",36%
same,Percent Disease Control,[18],73%
same,Percent Disease Control,[19],83%
same,Percent Disease Control,[20],64%
same,Percent Disease Control,[21],86%
same,Percent Disease Control,[22],98%
same,Percent Disease Control,[23],91%
same,Percent Disease Control,[24],100%
same,ED90,in vivo,128 µg/mL and 183 µg/mL
